For 26 compounds, class results are on record in patent publication US20050197350A1, “Novel quinoline, tetrahydroquinazoline, and pyrimidine derivatives and methods of treatment related to the use thereof” (TAISHO PHARMACEUTICAL CO., LTD., priority 2003, published 2005).

This assay has as its system MCH receptors. The experiment in a line: MCH receptor activity class (method not given).
[1] abbreviates: class 1-3 by percent of control at 10^-7 M or IC50.
[2] abbreviates: MCH receptor, class by percent of control at 10^-7 M or IC50.
[3] abbreviates: class by percent of control at 10^-7 M or IC50.
The mark [4] stands for this setting: activity class per percent of control at 10^-7 M or IC50.

Consider `CN(C)c1nc(N[C@H]2CC[C@@H](NC(=O)c3cc(C(C)(C)C)nn3Cc3ccccc3)CC2)nc2c1CCCC2` [compound 521], for which, under setting [1], the class is given as 2 (Class 2: The value of percent of control at 10^−7 M was from 40% to 60% or the value of IC′50 was from 50 nM to 200 nM.). With `CN(C)c1cc(N[C@H]2CC[C@@H](NC(=O)c3ccc(Br)cc3)CC2)nc2ccccc12` [compound 22], under setting [2], the class is given as 2 (Class 2: The value of percent of control at 10^−7 M was from 40% to 60% or the value of IC′50 was from 50 nM to 200 nM.).

For the compound `CN(C)c1ccnc(N[C@H]2CC[C@@H](CNC(=O)c3ccc(F)c(F)c3)CC2)n1` [compound 378], the class under setting [3] is 3 (Class 3 The value of percent of control at 10^−7 M was more than 60% or the value of IC50 was more than 200 nM.). `Cc1ccc(C(=O)CC(C(=O)N[C@H]2CC[C@@H](Nc3nccc(N(C)C)n3)CC2)c2cn(C)c3ccccc23)cc1` (relative stereo) [compound 862, N-(cis-4-{[4-(dimethylamino)pyrimidin-2-yl]amino}cyclohexyl)-2-(1-methyl-1H-indol-3-yl)-4-(4-methylphenyl)-4-oxobutanamide]: under setting [3], the class is recorded as 1 (Class 1: The value of percent of control at 10^−7 M was less than 40% or the value of IC50 was less than 50 nM.).

As to `Cc1cc(C(=O)N[C@H]2CC[C@@H](Nc3nc4c(c(N(C)C)n3)CCCC4)CC2)ccc1F` [compound 517], the class under setting [1] is given as 1 (Class 1: The value of percent of control at 10^−7 M was less than 40% or the value of IC50 was less than 50 nM.). With `CN(C)c1nc(N[C@H]2CC[C@@H](CNC(=O)c3ccc(-c4ccc(Cl)cc4[N+](=O)[O-])o3)CC2)nc2c1CCCC2` [compound 1064], the class under setting [4] was 3 (Class 3 The value of percent of control at 10^−7 M was more than 60% or the value of IC50 was more than 200 nM.).

Take `CN(C)c1cc(N[C@H]2CC[C@@H](NC(=O)c3cc(C(C)(C)C)nn3C)CC2)nc2ccccc12` [compound 86]: under setting [2], the class is given as 3 (Class 3 The value of percent of control at 10^−7 M was more than 60% or the value of IC50 was more than 200 nM.).

On to `CN(C)c1nc(N[C@H]2CC[C@@H](NC(=O)OCc3ccccc3)CC2)nc2c1CCCC2` [compound 1591], for which the class (activity class 1-3: percent of control at 10^-7 M or IC50) was 3 (Class 3 The value of percent of control at 10^−7 M was more than 60% or the value of IC50 was more than 200 nM.). As to `CN(C)c1cc(N[C@H]2CC[C@@H](NCCOc3ccccc3Cl)CC2)nc2ccccc12` [compound 1449], under setting [3], the class is 3 (Class 3 The value of percent of control at 10^−7 M was more than 60% or the value of IC50 was more than 200 nM.). Take `Cc1cnc(N[C@H]2CC[C@@H](NC(=O)c3ccc(C#N)cc3)CC2)nc1N(C)C` [compound 2909, 4-cyano-N-(cis-4-{[4-(dimethylamino)-5-methylpyrimidin-2-yl]amino}cyclohexyl)benzamide]: for the setting “class by percent of control at 10^−7 M or IC50”, the class is 1 (Class 1: The value of percent of control at 10^−7 M was less than 40% or the value of IC50 was less than 50 nM.). As for `CN(C)c1ccnc(N[C@H]2CC[C@@H](NC(=O)C(CC(=O)c3ccc(Br)cc3)c3c[nH]c4ccccc34)CC2)n1` (relative stereo) [compound 856], under setting [3], the class is recorded as 2 (Class 2: The value of percent of control at 10^−7 M was from 40% to 60% or the value of IC′50 was from 50 nM to 200 nM.). With `CCCSc1ncccc1C(=O)NC[C@H]1CC[C@@H](Nc2nc3c(c(N(C)C)n2)CCCC3)CC1` [compound 646], under setting [3], the class is reported as 1 (Class 1: The value of percent of control at 10^−7 M was less than 40% or the value of IC50 was less than 50 nM.). Still for that read-out and setting: next, `COC(=O)c1ccccc1NC(=O)N[C@H]1CC[C@@H](Nc2nc3c(c(N(C)C)n2)CCCC3)CC1` [compound 1844]: 3 (Class 3 The value of percent of control at 10^−7 M was more than 60% or the value of IC50 was more than 200 nM.); `CN(C)c1nc(N[C@H]2CC[C@@H](CNCc3cn(C)c4ccccc34)CC2)nc2c1CCCC2` [compound 1421]: 3 (Class 3 The value of percent of control at 10^−7 M was more than 60% or the value of IC50 was more than 200 nM.).

For `CN(C)c1nc(N[C@H]2CC[C@@H](NC(=O)Nc3ccc(F)c(Cl)c3)CC2)nc2c1CCCC2` [compound 1805], the class under setting [3] is listed as 3 (Class 3 The value of percent of control at 10^−7 M was more than 60% or the value of IC50 was more than 200 nM.).

With `CN(C)c1nc(N[C@H]2CC[C@@H](NC(=O)c3cccc(Oc4ccccc4)c3)CC2)nc2c1CCCC2` [compound 1007], under setting [4], the class was 1 (Class 1: The value of percent of control at 10^−7 M was less than 40% or the value of IC50 was less than 50 nM.).

For `CN(C)c1ccnc(N[C@H]2CC[C@@H](CNC(=O)c3ccc(F)cc3Cl)CC2)n1` [compound 406], under setting [3], the class was 3 (Class 3 The value of percent of control at 10^−7 M was more than 60% or the value of IC50 was more than 200 nM.). For the compound `Cc1onc(-c2c(Cl)cccc2Cl)c1C(=O)N[C@H]1CC[C@@H](Nc2nc3c(c(N(C)C)n2)CCCC3)CC1` [compound 570], the class under setting [1] was 1 (Class 1: The value of percent of control at 10^−7 M was less than 40% or the value of IC50 was less than 50 nM.).

As for `Cc1cc(C(=O)N[C@H]2CC[C@@H](Nc3cc(N(C)C)c4ccccc4n3)CC2)cc(C)c1[N+](=O)[O-]` [compound 774, N-(cis-4-{[4-(dimethylamino)quinolin-2-yl]amino}cyclohexyl)-3,5-dimethyl-4-nitrobenzamide], the class under setting [3] is recorded as 2 (Class 2: The value of percent of control at 10^−7 M was from 40% to 60% or the value of IC′50 was from 50 nM to 200 nM.).

As to `CN(C)c1ccnc(N[C@H]2CC[C@@H](NC(=O)c3ccc4nonc4c3)CC2)n1` [compound 241, N-(cis-4-{[4-(dimethylamino)pyrimidin-2-yl]amino}cyclohexyl)-2,1,3-benzoxadiazole-5-carboxamide], the class under setting [3] was 1 (Class 1: The value of percent of control at 10^−7 M was less than 40% or the value of IC50 was less than 50 nM.). Turning to `CN(C)c1nc(N[C@H]2CC[C@@H](NC(=O)c3cc(F)c(Cl)cc3Cl)CC2)nc2c1CCCC2` [compound 475], the class under setting [1] is given as 3 (Class 3 The value of percent of control at 10^−7 M was more than 60% or the value of IC50 was more than 200 nM.). Take `Cc1cc(CNC[C@H]2CC[C@@H](Nc3nc4c(c(N(C)C)n3)CCCC4)CC2)ccc1O` [compound 1436]: under setting [3], the class was 2 (Class 2: The value of percent of control at 10^−7 M was from 40% to 60% or the value of IC′50 was from 50 nM to 200 nM.). `Cc1ccccc1C(=O)NC[C@H]1CC[C@@H](Nc2cc(N(C)C)c3ccccc3n2)CC1` [compound 223]: the class under setting [3] is 3 (Class 3 The value of percent of control at 10^−7 M was more than 60% or the value of IC50 was more than 200 nM.). `CN(C)c1ccnc(N[C@H]2CC[C@@H](NC(=O)Nc3ccccc3C(C)(C)C)CC2)n1` [compound 2204]: the class under setting [3] is given as 3 (Class 3 The value of percent of control at 10^−7 M was more than 60% or the value of IC50 was more than 200 nM.). `CN(C)c1ccnc(N[C@H]2CC[C@@H](NC(=O)Cc3ccccc3)CC2)n1` [compound 263]: under setting [3], the class was 3 (Class 3 The value of percent of control at 10^−7 M was more than 60% or the value of IC50 was more than 200 nM.). For `CN(C)c1cc(N[C@H]2CC[C@@H](NC(=O)Nc3ccccc3Br)CC2)nc2ccccc12` [compound 2123], the class under setting [3] is 3 (Class 3 The value of percent of control at 10^−7 M was more than 60% or the value of IC50 was more than 200 nM.).
